Values after ≈ are worked out from the molar mass of the structure shown.

This test concerns Mycobacterium tuberculosis (M. tuberculosis kurono). The experiment in a line: Antimicrobial Assay (Agar Plate Dilution Method), M. tuberculosis kurono. In kind it is cell-based. The settings on record: 336 h, M. tuberculosis kurono, 7H11 agar medium, cultured at 37° C. for 14 days, read-out: Minimum Inhibitory Concentration.
`O=[N+]([O-])c1cn2c(n1)OC(COc1ccc(N3CCC(Oc4ccc(OC(F)(F)F)cc4)CC3)cc1)CC2` (stereo not shown) [Example 1, 2-nitro-7-{4-[4-(4-trifluoromethoxyphenoxy)piperidin-1-yl]phenoxymethyl}-6,7-dihydro-5H-imidazo[2,1-b][1,3]oxazine]: the MIC was found to be 0.024 µg/mL (≈ 0.0449 µM).

`O=[N+]([O-])c1cn2c(n1)OC(COc1ccc(N3CCN(Cc4ccc(OC(F)(F)F)cc4)CC3)cc1)CC2` (stereo not shown) [Example 3, 2-nitro-7-{4-[4-(4-trifluoromethoxybenzyl)piperazin-1-yl]phenoxymethyl}-6,7-dihydro-5H-imidazo[2,1-b][1,3]oxazine]: the MIC amounted to 0.05 µg/mL (≈ 0.0937 µM). As to `O=[N+]([O-])c1cn2c(n1)OC(COc1ccc(-c3coc(COc4ccc(OC(F)(F)F)cc4)n3)cc1)CC2` (stereo not shown) [Example 53, 2-nitro-7-{4-[2-(4-trifluoromethoxyphenoxymethyl)oxazol-4-yl]phenoxymethyl}-6,7-dihydro-5H-imidazo[2,1-b][1,3]oxazine], the MIC is 0.1 µg/mL (≈ 0.188 µM).

In the case of `O=[N+]([O-])c1cn2c(n1)OC(COc1ccc(-c3csc(-c4ccc(OC(F)(F)F)cc4)n3)cc1)CC2` (stereo not shown) [Example 56, 2-nitro-7-{4-[2-(4-trifluoromethoxyphenyl)thiazol-4-yl]phenoxymethyl}-6,7-dihydro-5H-imidazo[2,1-b][1,3]oxazine], the MIC is 0.012 µg/mL (≈ 0.0231 µM). To `O=[N+]([O-])c1cn2c(n1)OC(COc1ccc(N3CCN(CCCc4ccc(Oc5ccc(OC(F)(F)F)cc5)cc4)CC3)cc1)CC2` (stereo not shown) [Example 64, 2-nitro-7-[4-(4-{3-[4-(4-trifluoromethoxyphenoxy)phenyl]propyl}piperazin-1-yl)phenoxymethyl]-6,7-dihydro-5H-imidazo[2,1-b][1,3]oxazine] belongs at most 0.006 µg/mL; to `O=[N+]([O-])c1cn2c(n1)OC(COc1ccc(N3CCC(CCOc4ccc(OC(F)(F)F)cc4)CC3)nc1)CC2` (stereo not shown) [Example 79, 2-nitro-7-(6-{4-[2-(4-trifluoromethoxyphenoxy)ethyl]piperidin-1-yl}pyridin-3-yloxymethyl)-6,7-dihydro-5H-imidazo[2,1-b][1,3]oxazine], 0.012 µg/mL (≈ 0.0213 µM); to `CN(c1ccc(OC(F)(F)F)cc1)C1CCN(c2ccc(OC[C@H]3CCn4cc([N+](=O)[O-])nc4O3)cc2)CC1` [Example 90, N-methyl-N-{1-[4-((R)-2-nitro-6,7-dihydro-5H-imidazo[2,1-b][1,3]oxazin-7-ylmethoxy)phenyl]piperidin-4-yl}-N-(4-trifluoromethoxyphenyl)amine], 0.012 µg/mL (≈ 0.0219 µM).

With `O=[N+]([O-])c1cn2c(n1)OC(COc1ccc3c(c1)CCCN3CCCOc1ccc(OC(F)(F)F)cc1)CC2` (stereo not shown) [Example 143, 6-(2-nitro-6,7-dihydro-5H-imidazo[2,1-b][1,3]oxazin-7-ylmethoxy)-1-[3-(4-trifluoromethoxyphenoxy)propyl]-1,2,3,4-tetrahydroquinoline], the MIC is 0.1 µg/mL (≈ 0.182 µM). As for `O=[N+]([O-])c1cn2c(n1)OC(COc1ccc(N3CCC(Oc4ccc(OC(F)(F)F)cc4)CC3)c(F)c1)CC2` (stereo not shown) [Example 147, 7-{3-fluoro-4-[4-(4-trifluoromethoxyphenoxy)piperidin-1-yl]phenoxymethyl}-2-nitro-6,7-dihydro-5H-imidazo[2,1-b][1,3]oxazine], the MIC was determined as 0.05 µg/mL (≈ 0.0905 µM). The same measure for `O=[N+]([O-])c1cn2c(n1)O[C@@H](COc1ccc3nc(OCc4ccc(OC(F)(F)F)cc4)ccc3c1)CC2` [Example 153, 6-((R)-2-nitro-6,7-dihydro-5H-imidazo[2,1-b][1,3]oxazin-7-ylmethoxy)-2-(4-trifluoromethoxybenzyloxy)quinoline]: 0.024 µg/mL (≈ 0.0465 µM); for `O=[N+]([O-])c1cn2c(n1)O[C@@H](COc1ccc(N3CCN(Cc4ccc(OCc5ccc(C(F)(F)F)cc5)cc4)CC3)cc1)CC2` [Example 182, (R)-2-nitro-7-(4-{4-[4-(4-trifluoromethylbenzyloxy)benzyl]piperazin-1-yl}phenoxymethyl)-6,7-dihydro-5H-imidazo[2,1-b][1,3]oxazine]: at most 0.0015 µg/mL.

Take `O=[N+]([O-])c1cn2c(n1)O[C@@H](COc1ccc(N3CCN(c4ccc(OCc5ccc(OC(F)(F)F)cc5)cc4)CC3)cc1)CC2` [Example 198, (R)-2-nitro-7-(4-{4-[4-(4-trifluoromethoxybenzyloxy)phenyl]piperazin-1-yl}phenoxymethyl)-6,7-dihydro-5H-imidazo[2,1-b][1,3]oxazine]: the MIC is at most 0.0015 µg/mL. Consider `O=[N+]([O-])c1cn2c(n1)O[C@@H](COc1ccc(OC3CCN(Cc4ccc(OCc5ccc(OC(F)(F)F)cc5)cc4)CC3)cc1)CC2` [Example 206, (R)-2-nitro-7-(4-{1-[4-(4-trifluoromethoxybenzyloxy)benzyl]piperidin-4-yloxy}phenoxymethyl)-6,7-dihydro-5H-imidazo[2,1-b][1,3]oxazine], for which the MIC was at most 0.0015 µg/mL.

For the molecule `O=[N+]([O-])c1cn2c(n1)O[C@H](COc1ccc(N3CCC(Cc4ccc(OCc5ccc(C(F)(F)F)cc5)cc4)CC3)cc1)CC2` [Example 254, (S)-2-nitro-7-(4-{4-[4-(4-trifluoromethylbenzyloxy)benzyl]piperidin-1-yl}phenoxymethyl)-6,7-dihydro-5H-imidazo[2,1-b][1,3]oxazine], the MIC stood at 0.0008 µg/mL (≈ 0.00128 µM). Regarding `O=[N+]([O-])c1cn2c(n1)O[C@H](COc1ccc(-c3ccc(CN4CCC(Oc5ccc(OC(F)(F)F)cc5)CC4)cc3)cc1)CC2` [Example 282, (S)-2-nitro-7-{4′-[4-(4-trifluoromethoxyphenoxy)piperidin-1-ylmethyl]biphenyl-4-yloxymethyl}-6,7-dihydro-5H-imidazo[2,1-b][1,3]oxazine], the MIC was determined as 0.006 µg/mL (≈ 0.00961 µM). With `O=[N+]([O-])c1cn2c(n1)O[C@H](COc1ccc(N3CCN(Cc4ccc(NCc5ccc(C(F)(F)F)cc5)cc4)CC3)cc1)CC2` [Example 290, N-(4-{4-[4-((S)-2-nitro-6,7-dihydro-5H-imidazo[2,1-b][1,3]oxazin-7-ylmethoxy)phenyl]piperazin-1-ylmethyl}phenyl)-N-(4-trifluoromethylbenzyl)amine], the MIC is 0.0008 µg/mL (≈ 0.00128 µM).

Turning to `C[C@@H]1CN(c2ccc(OC[C@H]3CCn4cc([N+](=O)[O-])nc4O3)cc2)CCN1Cc1ccc(OCc2ccc(C(F)(F)F)cc2)cc1` [Example 299, (R)-7-(4-{(R)-3-methyl-4-[4-(4-trifluoromethylbenzyloxy)benzyl]piperazin-1-yl}phenoxymethyl)-2-nitro-6,7-dihydro-5H-imidazo[2,1-b][1,3]oxazine], the MIC is 0.0008 µg/mL (≈ 0.00125 µM). `O=[N+]([O-])c1cn2c(n1)O[C@@H](COc1ccc3c(c1)CCN(Cc1ccc(OCc4ccc(C(F)(F)F)cc4)cc1)C3)CC2` [Example 304, 6-((R)-2-nitro-6,7-dihydro-5H-imidazo[2,1-b][1,3]oxazin-7-ylmethoxy)-2-[4-(4-trifluoromethylbenzyloxy)benzyl]-1,2,3,4-tetrahydroisoquinoline]: the MIC stood at 0.012 µg/mL (≈ 0.0202 µM). `C[C@@H]1CN(Cc2ccc(Oc3ccc(OC(F)(F)F)cc3)cc2)CCN1c1ccc(OC[C@H]2CCn3cc([N+](=O)[O-])nc3O2)cc1` [Example 335, (R)-7-(4-{(R)-2-methyl-4-[4-(4-trifluoromethoxyphenoxy)benzyl]piperazin-1-yl}phenoxymethyl)-2-nitro-6,7-dihydro-5H-imidazo[2,1-b][1,3]oxazine]: the MIC stood at 0.0015 µg/mL (≈ 0.00235 µM).

(Values after patent US9051333B2, “6,7-dihydroimidazo [2,1-b] [1,3]oxazine bactericides” (OTSUKA PHARMACEUTICAL CO., LTD., priority 2011, dated 2015).)
